Results published in patent publication US20140349862A1, “METHODS AND COMPOSITIONS FOR THERAPEUTIC DRUG MONITORING AND DOSING BY POINT OF CARE PHARMACOKINETIC PROFILING” (priority 2011, published 2014).
Where two headings read alike, the source gives them in different places.

Columns and labels:
[1] = test system: patients with metastatic colorectal cancer; conditions: cited from earlier work
clinical = conditions: human, in vivo
From the text: To determine whether Abraxane PK has enough variability to benefit from therapeutic drug monitoring, we performed a PK analysis using all published literature on Abraxane PK. […] J Clin Oncol. 23:7785-93.). […] It is expected that Genexol-PM and Nanoxel would have the same PK variations. The wide variability of Abraxane was rather surprising. The role of therapeutic drug monitoring is to reduce this variability. Though PK profiles for Abraxane and Taxol were similar, there are differences. These differences, however, are small and could be masked by the large variation in PK of Abraxane/Taxol.
To determine whether medication used in assisted reproduction, i.e. FSH (follicle stimulating hormone), we performed a PK analysis using published literature on FSH PK. […] To compare it to 5-FU data, we used variability as SD/Mean.

[2] = initial BSA dose, blood plasma concentration measured

AUC variability (range as % of the mean) (clinical): 138% | AUC variability as SD/Mean (clinical): 34.42% | AUC (clinical; mean): 9050 ng·h/mL | AUC (clinical; range): 3900 to 16400 ng·h/mL
Compound: O=c1[nH]cc(F)c(=O)[nH]1 [5-FU, 5-fluorouracil]
Median survival ([1]; BSA arm): 16 months | Response rate ([1]; BSA group (dosing by body surface area)): 18.3% | Response rate ([1]; dose-adjusted group (PK-guided dosing)): 33.6% | Patients found to be over-dosed (doses adjusted downward) [1, 2]: Seventeen | Patients found to be under-dosed (doses adjusted upwards) [1, 2]: Fifty eight | Improvement of overall survival at two years ([1]; personalized 5-FU dose management versus BSA arm): 48% | Median survival ([1]; personalized 5-FU dose management): 22 months | Grade III/IV 5-FU related toxicities ([1]; personalized dose adjustment versus BSA dosing): significantly lower
